From patent publication US6355799B1, “Substituted benzene compounds, process for their preparation, and herbicidal and defoliant compositions containing them” (ISK Americas Incorporated, priority 1997, dated 2002)

Legend:
Format in all cases: in vivo
[1] = tested on: upland rice (Oryza sp., var. Tebonnet, RICE); test: Post-emerge test, crop safety; settings: post-emerge, 14 days after application, rating scale 0-100
Outline: (§1)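 Plants grown in 10 cm pots of sandy loam mix received acetone-dissolved compounds through a moving flat-fan nozzle. Doses ranged from 15 to 1000 g ai/ha. Pre-emerge pots were seeded one day earlier, post-emerge pots 8–21 days earlier. Fourteen days on, each pot was graded 0–100 for damage.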

[2] = tested on: field corn (Zea mays L., var. Dekalb 535, CORN); test: Post-emerge test, crop safety; settings: post-emerge, 14 days after application, rating scale 0-100
Outline: as §1

[3] = tested on: barnyardgrass (Echinochloa crus-galli, ECHCG); test: Pre-emerge test, greenhouse herbicide activity screening; settings: phytotoxicity rating 0-100, 14 days after application
Description: (§2) A standard greenhouse herbicide activity screening system was used to evaluate the herbicidal efficacy and crop safety of these test compounds. Seven broadleaf weed species including redroot pigweed (Amaranthus retroflexus, AMARE, velvetleaf (Abutilon theophrasti, ABUTH), sicklepod (Cassia obtusifolia, CASOB), ivyleaf morningglory (Ipomoea hederacea, IPOHE), lambsquarters (Chenopodium album, CHEAL), common ragweed (Ambrosia artemisizfolia L., AMBEL), and cocklebur (Xanthium strumarium, XANST) were used as test species. Four grass weed species including green foxtail (Setaria viridis, SETVI), barnyardgrass (Echinochloa crus-galli, ECHCG), johnsongrass (Sorghum halepense, SORHA), and large crabgrass (Digitaria sanguinalis, DIGSA) were also used. In addition, three crop species, field corn (Zea mays L., var. Dekalb 535, CORN), soybean (Glycine max L., var. Pella 86, SOY), and is upland rice (Oryza sp., var. Tebonnet, RICE) were included.
(§3) All plants were grown in 10 cm square plastic pots which were filled with a sandy loam soil mix. For pre-emerge tests, seeds were planted one day prior to application of the test compounds. For post-emerge tests, seeds were planted 8-21 days prior to the test to allow emergence and good foliage development prior to application of the test substances. At the time of the post-emerge application, plants of all species were usually at the 2-3 leaf stage of development.
(§4) All test compounds Were dissolved in acetone and applied to the test units in a volume of 187 l /ha. Test materials were applied at rates ranging from 15 g ai/ha to 1000 g ai/ha using a track sprayer equipped with a TJ8001E even flow flat fan spray nozzle. Plants were arranged on a shelf so that the top of the canopy (post-emerge) or top of the soil surface (pre-emerge) was 40-45 cm below the nozzle. Pressurized air was used to force the test solution through the nozzle as it was mechanically advanced (via electrically driven chain drive) over the top of all test plants/pots. This application simulates a typical commercial field herbicide application.
(§5) In the post-emerge test, a commercial non-ionic surfactant was also included (0.25% v/v) to enhance wetting of the leaf surfaces of target plants. Immediately after application, test units of the pre-emerge applications were watered at the soil surface to incorporate the test materials. Subsequently, these test units were bottom-watered. Post-emerge test units were always bottom-watered.
(§6) At 14 days after application of the test materials, phytotoxicity ratings were recorded. A rating scale of 0-100 was used as previously described in Research Methods in Weed Science, 2nd edition, B. Truelove, Ed., Southern Weed Science Society, Auburn University, Auburn, Ala. 1977. Briefly, “0” corresponds to no damage and “100” corresponds to complete death of all plants in the test unit. This scale was used both to determine efficacy against weed species and damage to crop species. Herbicide activity data for various compounds of this invention, which are shown by compound No. in Tables 1-8, are shown in Tables 11 and 12.

[4] = tested on: velvetleaf (Abutilon theophrasti, ABUTH); test: as above; settings: phytotoxicity rating 0-100, 14 days after application
Description: as §2, §3, §4, §5, §6

[5] = tested on: lambsquarters (Chenopodium album, CHEAL); test: as above; settings: phytotoxicity rating 0-100, 14 days after application
Description: as §2, §3, §4, §5, §6

[6] = tested on: sicklepod (Cassia obtusifolia, CASOB); test: as above; settings: phytotoxicity rating 0-100, 14 days after application
Description: as §2, §3, §4, §5, §6

[7] = tested on: large crabgrass (Digitaria sanguinalis, DIGSA); test: as above; settings: phytotoxicity rating 0-100, 14 days after application
Description: as §2, §3, §4, §5, §6

[8] = tested on: ivyleaf morningglory (Ipomoea hederacea, IPOHE); test: as above; settings: phytotoxicity rating 0-100, 14 days after application
Description: as §2, §3, §4, §5, §6

[9] = tested on: green foxtail (Setaria viridis, SETVI); test: as above; settings: phytotoxicity rating 0-100, 14 days after application
Description: as §2, §3, §4, §5, §6

[10] = tested on: upland rice (Oryza sp., var. Tebonnet, RICE); test: Pre-emerge test, crop safety; settings: crop damage rating 0-100, 14 days after application
Outline: (§7)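 Applied at 15–1000 g ai/ha from acetone in 187 l/ha spray volume. Post-emergence applications included 0.25% v/v non-ionic surfactant and reached plants sown 8–21 days before. Pre-emergence applications were incorporated by surface watering. Efficacy or crop damage was rated on a 0–100 scale after 14 days.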

[11] = tested on: field corn (Zea mays L., var. Dekalb 535, CORN); test: Pre-emerge test, crop safety; settings: crop damage rating 0-100, 14 days after application
Outline: as §7

[12] = tested on: redroot pigweed (Amaranthus retroflexus, AMARE); test: Pre-emerge test, greenhouse herbicide activity screening; settings: phytotoxicity rating 0-100, 14 days after application
Outline: as §1

[13] = tested on: barnyardgrass (Echinochloa crus-galli, ECHCG); test: Post-emerge test, greenhouse herbicide activity screening; settings: post-emerge, 14 days after application, rating scale 0-100
Description: as §2, §3, §4, §5, §6

[14] = tested on: velvetleaf (Abutilon theophrasti, ABUTH); test: as above; settings: post-emerge, 14 days after application, rating scale 0-100
Description: as §2, §3, §4, §5, §6

[15] = tested on: lambsquarters (Chenopodium album, CHEAL); test: as above; settings: post-emerge, 14 days after application, rating scale 0-100
Description: as §2, §3, §4, §5, §6

[16] = tested on: sicklepod (Cassia obtusifolia, CASOB); test: as above; settings: post-emerge, 14 days after application, rating scale 0-100
Description: as §2, §3, §4, §5, §6

[17] = tested on: large crabgrass (Digitaria sanguinalis, DIGSA); test: as above; settings: post-emerge, 14 days after application, rating scale 0-100
Description: as §2, §3, §4, §5, §6

[18] = tested on: redroot pigweed (Amaranthus retroflexus, AMARE); test: as above; settings: post-emerge, 14 days after application
Description: as §2, §3, §4, §5, §6

[19] = tested on: ivyleaf morningglory (Ipomoea hederacea, IPOHE); test: as above; settings: post-emerge, 14 days after application, rating scale 0-100
Description: as §2, §3, §4, §5, §6

[20] = tested on: green foxtail (Setaria viridis, SETVI); test: as above; settings: post-emerge, 14 days after application, rating scale 0-100
Description: as §2, §3, §4, §5, §6

COc1c(Cl)ccc(-n2c(=O)cc(C(F)(F)F)n(C)c2=O)c1NC(=O)c1ccc2ccccc2c1 [2-202]
0: Pre-emerge Herbicidal Activity CORN ([11]; 63 g ai/ha) | phytotoxicity rating DIGSA ([17]; 63 g ai/ha)
10: phytotoxicity rating ECHCG ([13]; 63 g ai/ha)
50: Pre-emerge Herbicidal Activity CORN ([11]; 250 g ai/ha)
15: phytotoxicity rating CORN (crop damage) ([2]; 63 g ai/ha)
60: phytotoxicity rating RICE (crop damage) ([1]; 250 g ai/ha)
20: phytotoxicity rating RICE (crop damage) ([1]; 63 g ai/ha)
100: Pre-emerge Herbicidal Activity ECHCG ([3]; 250 g ai/ha) | Pre-emerge Herbicidal Activity ABUTH ([4]; 63 g ai/ha) | Pre-emerge Herbicidal Activity ABUTH ([4]; 250 g ai/ha) | Pre-emerge Herbicidal Activity CHEAL ([5]; 63 g ai/ha) | Pre-emerge Herbicidal Activity CHEAL ([5]; 250 g ai/ha) | Pre-emerge Herbicidal Activity DIGSA ([7]; 250 g ai/ha) | Pre-emerge Herbicidal Activity IPOHE ([8]; 63 g ai/ha) | Pre-emerge Herbicidal Activity IPOHE ([8]; 250 g ai/ha) | Pre-emerge Herbicidal Activity SETVI ([9]; 250 g ai/ha) | Pre-emerge Herbicidal Activity AMARE ([12]; 63 g ai/ha) | Pre-emerge Herbicidal Activity AMARE ([12]; 250 g ai/ha) | phytotoxicity rating ABUTH ([14]; 63 g ai/ha) | phytotoxicity rating ABUTH ([14]; 250 g ai/ha) | phytotoxicity rating CHEAL ([15]; 63 g ai/ha) | phytotoxicity rating CHEAL ([15]; 250 g ai/ha) | phytotoxicity rating CASOB ([16]; 63 g ai/ha) | phytotoxicity rating CASOB ([16]; 250 g ai/ha) | phytotoxicity rating AMARE ([18]; 63 g ai/ha, rating scale 0-100 (0 no damage, 100 complete death)) | phytotoxicity rating AMARE ([18]; 250 g ai/ha, rating scale 0-100) | phytotoxicity rating IPOHE ([19]; 63 g ai/ha) | phytotoxicity rating IPOHE ([19]; 250 g ai/ha)
30: phytotoxicity rating CORN (crop damage) ([2]; 250 g ai/ha) | Pre-emerge Herbicidal Activity CASOB ([6]; 63 g ai/ha) | Pre-emerge Herbicidal Activity DIGSA ([7]; 63 g ai/ha) | phytotoxicity rating DIGSA ([17]; 250 g ai/ha) | phytotoxicity rating SETVI ([20]; 63 g ai/ha)
90: Pre-emerge Herbicidal Activity ECHCG ([3]; 63 g ai/ha) | Pre-emerge Herbicidal Activity RICE ([10]; 250 g ai/ha)
40: Pre-emerge Herbicidal Activity SETVI ([9]; 63 g ai/ha) | Pre-emerge Herbicidal Activity RICE ([10]; 63 g ai/ha) | phytotoxicity rating ECHCG ([13]; 250 g ai/ha) | phytotoxicity rating SETVI ([20]; 250 g ai/ha)
80: Pre-emerge Herbicidal Activity CASOB ([6]; 250 g ai/ha)
